Assay results published in publication PMC6736568, “Discovery of Novel Anti-cryptosporidial Activities From Natural Products by in vitro High-Throughput Phenotypic Screening” (Frontiers in Microbiology, 2019).
Where a name gives a salt, the structure may show the parent alone. Read-outs that look alike come from different tables or passages of the source.

How the values were obtained:
Cryptosporidium parvum = experiment: qRT-PCR assay of the growth of C. parvum in vitro in HCT-8 host cells (primary and secondary screening, EC50); format: cell-based; conditions: Cryptosporidium parvum, HCT-8; for inhibition at 3.3 µM: secondary screening at 3.3 uM, read-out: % Inhibition (3.3 uM)
[1] = primary screening at 10 uM, read-out: Inhibition (%)
[2] = primary screening at 10 uM, treated vs control

Row | SMILES | inhibition at 10 µM (Cryptosporidium parvum; [1]) | Hs18S ΔCT (HCT-8 host cells (Hs18S); human, 41 h, 10 μM) | cytotoxicity at 41 h, 10 µM (in vitro; human) | Hs18S ΔCT (HCT-8 host cells (Hs18S); [2]) | cytotoxicity at 41 h, 10 µM (in vitro) | inhibition at 3.3 µM (Cryptosporidium parvum) | cytotoxicity at 10 µM (in vitro) | Hs18S ΔCT (HCT-8 host cells (Hs18S)) | inhibition at 10 µM (Cryptosporidium parvum)
1 | CC1(C)[C@@H](O)CC[C@]2(C)[C@H]3C(=O)C=C4[C@@H]5C[C@@](C)(C(=O)O)CC[C@]5(C)CC[C@@]4(C)[C@]3(C)CC[C@@H]12 [ENOXOLONE] | -8.81% | -0.07 | -5.3% |  |  |  |  |  | 
2 | COc1cc2c(cc1OC)-c1cc3ccc(OC)c(OC)c3c[n+]1CC2 [PALMATINE CHLORIDE] | 9.29% | -0.09 | -6.1% |  |  |  |  |  | 
3 | CC(C)[C@@H](C)/C=C/[C@@H](C)[C@H]1CC[C@H]2C3=CC=C4C[C@@H](O)CC[C@]4(C)[C@H]3CC[C@]12C [ERGOSTEROL] | -29.6% |  | -1.9% | -0.03 |  |  |  |  | 
4 | C[C@]12CC[C@H]3C(=CCc4cc(O)ccc43)[C@@H]1CCC2=O [EQUILIN] | -53.6% |  |  | -0.60 | -51.5% |  |  |  | 
5 | COC1=CC(=O)C[C@@H](C)[C@]12Oc1c(Cl)c(OC)cc(OC)c1C2=O [GRISEOFULVIN] | 66% | 0.30 | 18.7% |  |  | 9% |  |  | 
6 | CC1(C)C(=O)[C@@H]2C[C@@]3(O)C4=CC(=O)O[C@@H](c5ccoc5)[C@]4(C)CC[C@@H]3[C@@](C)(C2=O)[C@H]1CC(=O)O [8-HYDROX[…]] | -11% |  |  | 1.43 |  |  | 63% |  | 
7 | CN(C)[C@@H]1C(O)=C(C(N)=O)C(=O)[C@@]2(O)C(O)=C3C(=O)c4c(O)cccc4[C@@](C)(O)[C@H]3C[C@@H]12 [TETRACYCLINE HYDROCHLORIDE] | -17.3% |  |  |  |  |  | -24.3% | -0.31 | 
8 | CC1(C)CC[C@]2(C(=O)O)CC[C@]3(C)C(=CC[C@@H]4[C@@]5(C)CC[C@H](O)[C@@](C)(CO)[C@@H]5CC[C@]43C)[C@@H]2C1 [HEDERAGENIN] | 53.4% |  |  | -0.11 |  |  | -7.7% |  | 
9 | CC(=O)N(O)CCCCCNC(=O)CCC(=O)N(O)CCCCCNC(=O)CCC(=O)N(O)CCCCCN [DEFEROXAMINE MESYLATE] | -48.5% | 0.31 | 19.6% |  |  |  |  |  | 
10 | COC(=O)[C@@H]1C[C@H](OC(C)=O)C(=O)[C@H]2[C@@]1(C)CC[C@H]1C(=O)O[C@H](c3ccoc3)C[C@]21C [[…]] | 16.7% |  |  | 0.53 |  |  | 30.5% |  | 
11 | CC12CCC(CC1)C(C)(C)O2 [EUCALYPTOL] | 16.2% | -0.22 | -16.4% |  |  |  |  |  | 
12 | CC1=CCc2c(cc3oc(C)cc(=O)c3c2O)OC1 [PTAEROXYLIN] | -20.7% | -0.13 | -9.7% |  |  |  |  |  | 
13 | COc1cc(C2Oc3cc([C@H]4Oc5cc(O)cc(O)c5C(=O)[C@@H]4O)ccc3OC2CO)ccc1O (stereo partly shown) [SILIBININ] | 93.5% | -0.02 | -1.4% |  |  | -30% |  |  | 
14 | CCCCC[C@H](CC(=O)O)C(=O)O [NONIC ACID] | -17.1% | 0.06 | 3.9% |  |  |  |  |  | 
15 | Cc1ccc(C(C)C)cc2c(C)ccc1-2 [GUAIAZULENE] | -38.2% | -0.34 | -27% |  |  |  |  |  | 
16 | COc1ccc2cc1Oc1ccc(cc1)C[C@H]1c3c(cc4c(c3Oc3cc5c(cc3OC)CCN(C)[C@@H]5C2)OCO4)CCN1C [CEPHARANTHINE] | 16.8% | 0.33 | 20.5% |  |  |  |  |  | 
17 | C=C(C)[C@@H]1CC[C@]2(CO)CC[C@]3(C)[C@H](CC[C@@H]4[C@@]5(C)CC[C@H](O)C(C)(C)[C@@H]5CC[C@]43C)[C@@H]12 [BETULIN] | 36.9% |  |  | -0.49 |  |  | -40.4% |  | 
18 | O=c1ccc2cc(O)c(O)cc2o1 [ESCULETIN] | -23.8% |  |  | 0.21 |  |  | 13.5% |  | 
19 | O=C(O)[C@]1(O)C[C@@H](O)[C@@H](O)[C@H](O)C1 [QUINIC ACID] | 69.4% | 0.23 | 14.6% |  |  | -6% |  |  | 
20 | C=C1CC[C@@H]2[C@](C)(CO)[C@H](O)CC[C@@]2(C)[C@@H]1C/C=C1/C(=O)OC[C@H]1O [ANDROGRAPHOLIDE] | 38.8% | 0.08 | 5.3% |  |  |  |  |  | 
21 | CC(=O)c1ccc[nH]1 [2-ACETYLPYRROLE] | 22.6% | -0.43 | -34.6% |  |  |  |  |  | 
22 | [H]/N=C(/N)N[C@H]1[C@H](O)[C@@H](O)[C@H](O[C@@H]2O[C@@H](C)[C@](O)(C=O)[C@H]2O[C@@H]2O[C@@H](CO)[C@H](O)[C@@H](O)[C@@H]2NC)[C@@H](N/C(N)=N\[H])[C@@H]1O [STREPTOMYCIN SULFATE] | 15.4% | -0.10 | -7.1% |  |  |  |  |  | 
23 | NCCc1c[nH]cn1 [HISTAMINE DIHYDROCHLORIDE] | -20.6% |  |  |  |  |  | 1.3% | 0.02 | 

Row | SMILES | inhibition at 10 µM (Cryptosporidium parvum; [1]) | Hs18S ΔCT (HCT-8 host cells (Hs18S); human, 41 h, 10 μM) | cytotoxicity at 41 h, 10 µM (in vitro; human) | Hs18S ΔCT (HCT-8 host cells (Hs18S); [2]) | cytotoxicity at 41 h, 10 µM (in vitro) | inhibition at 3.3 µM (Cryptosporidium parvum) | cytotoxicity at 10 µM (in vitro) | Hs18S ΔCT (HCT-8 host cells (Hs18S)) | inhibition at 10 µM (Cryptosporidium parvum)
24 | C[C@H](CCC(=O)NCC(=O)O)[C@H]1CC[C@H]2[C@@H]3[C@H](O)C[C@@H]4C[C@H](O)CC[C@]4(C)[C@H]3C[C@H](O)[C@]12C [GLYCOCHOLIC ACID] | -58.4% | -0.31 |  |  |  |  | -23.7% |  | 
25 | C=C1C(=O)O[C@@H]2C[C@@]3(C)CCC[C@H](C)C3=C[C@H]12 [HELENINE] | -20% | 0.10 | 6.4% |  |  |  |  |  | 
26 | O=C(O)[C@@H](O)[C@](O)(Cc1ccc(O)cc1)C(=O)O [PISCIDIC ACID] | -5.12% |  |  | -0.03 |  |  | -1.7% |  | 
27 | CC1=C(/C=C/C(C)=C/C=C/C(C)=C/CO)C(C)(C)CCC1 [RETINOL] | 6.73% | 0.09 | 6.3% |  |  |  |  |  | 
28 | COC(=O)C[C@H]1C2(C)CC34OC5(C)O[C@@]6([C@H](OC(C)=O)C(OC(C)=O)[C@]7(C)C(/C(=C(/O)C(C)C)C(=O)O[C@H]7c7ccoc7)[C@@]6(O5)[C@H](OC(C)=O)[C@@]3(O)C2OC(=O)C(C)C)[C@]14C (stereo partly shown) [BUSSEIN] | 85.1% | -0.33 | -25.3% |  |  | 34% |  |  | 
29 | CC[C@H](CC[C@@H](C)[C@H]1CC[C@H]2[C@@H]3CC=C4C[C@@H](O)CC[C@]4(C)[C@H]3CC[C@]12C)C(C)C [beta-SITOSTEROL] | 91.7% |  |  | 0.43 |  | 20% | 25.8% |  | 
30 | Nc1nc(=O)c2[nH]c(=O)cnc2[nH]1 [XANTHOPTERIN] | 22.7% | 0.47 | 27.9% |  |  |  |  |  | 
31 | O=c1cccc2n1C[C@@H]1CNC[C@H]2C1 [CYTISINE] |  |  |  |  |  |  | -20% | -0.26 | 16%
32 | Cc1cc2c(C(C)C)c(O)c(O)c(C=O)c2c(O)c1-c1c(C)cc2c(C(C)C)c(O)c(O)c(C=O)c2c1O [GOSSYPOL] | 21.4% |  | 26.6% | 0.45 |  |  |  |  | 
33 | NC[C@@H]1O[C@H](O[C@H]2[C@@H](O)[C@H](O[C@@H]3[C@@H](O)[C@H](N)C[C@H](N)[C@H]3O[C@H]3O[C@H](CO)[C@@H](O)[C@H](O)[C@H]3N)O[C@@H]2CO)[C@H](N)[C@@H](O)[C@@H]1O [PAROMOMYCIN SULFATE] | 19.7% | 0.08 | 5.5% |  |  |  |  |  | 
34 | O=C1c2cccc(O)c2C(=O)c2c(O)cccc21 [DANTHRON] | 23% |  | -8.6% | -0.12 |  |  |  |  | 
35 | COc1ccc([C@H]2Oc3cc(OC)cc(OC)c3C[C@H]2O)cc1 [EPIAFZELECHIN TRIMETHYL ETHER] | 13.8% | 0.21 | 13.4% |  |  |  |  |  | 
36 | COC(=O)C[C@H]1C(C)(C)C(=O)[C@@H]2CC3C4=CC(=O)O[C@@H](c5ccoc5)[C@]4(C)CC[C@@H]3[C@@]1(C)C2=O (stereo partly shown) [CARAPIN] | 30.7% | -0.07 | -5.2% |  |  |  |  |  | 
37 | COc1cc(/C=C/C(=O)N2CCC=CC2=O)cc(OC)c1OC [PIPLARTINE] | 73.7% |  |  | 0.33 |  | 10% | 20.5% |  | 
38 | COc1ccc2c(c1)OC[C@@H](Cc1ccc(OC)c(OC)c1)[C@@H]2O [3-DESHYDROXYSAPPANOL TRIMETHYL ETHER] | 7.69% | 0.05 | 3.2% |  |  |  |  |  | 
39 | COc1cc2c(cc1OC)C1(O)C(=O)c3ccc(O)c(C(=O)O)c3OC1CO2 (stereo not shown) [12a-HYDROXY-9-DEMETHYLMUNDUSERONE-8-CARBOXYLIC ACID] | 0.54% |  |  | 0.06 |  |  | 4.1% |  | 
40 | CC(C)c1c(O)ccc2c1CC[C@H]1C(C)(C)CCC[C@]21C [TOTAROL] | -9.45% | -0.36 | -28.4% |  |  |  |  |  | 
41 | Oc1cc(O)c2c(c1)O[C@H](c1cc(O)c(O)c(O)c1)[C@H](O)C2 [EPIGALLOCATECHIN] | 7.01% | 0.15 | 9.9% |  |  |  |  |  | 
42 | Oc1ccc2c(c1)OC[C@]1(O)Cc3cc(O)c(O)cc3[C@H]21 [BRAZILIN] | 8.3% | -0.12 | -8.9% |  |  |  |  |  | 
43 | COc1c(O)cc2c(c1O)[C@@H]1O[C@H](CO)[C@@H](O)[C@H](O)[C@H]1OC2=O [BERGENIN] | 36% | 0.38 | 23.1% |  |  |  |  |  | 
44 | COc1cc2c(cc1OC)C(=O)OC2 [METAMECONINE] | 24.5% | 0.33 | 20.2% |  |  |  |  |  | 
45 | CC(=O)Oc1c2c(c(CC=C(C)C)c3c1C(=O)C1=C[C@@H]4CC5C(C)(C)OC(C/C=C(\C)C(=O)O)(C4=O)[C@@]15O3)OC(C)(CCC=C(C)C)C=C2 (stereo partly shown) [ACETYL I[…]] | 95.2% |  |  | 1.57 |  | 27% | 66.4% |  | 
